Organism: Rattus norvegicus
Experiment: Open TG-GATES - Regimen: Single
Assay type: toxicity, organism-based, Sprague-Dawley
Parameters: regimen Single, gender Male, age 6 weeks
Details: in vivo, po, 100 mg/kg, route gavage, dose level Middle; for APTT / Bas / Eos / Fbg / Hb / Ht / Lym / MCH / MCHC / MCV / Mono / Neu / PT / Plat / RBC / Ret / WBC: tissue Blood; for KIDNEY_L / KIDNEY_R / KIDNEY_TOTAL: tissue Kidney; for LIVER: tissue Liver; for A/G / ALP / ALT / AST / BUN / CRE / Ca / Cl / DBIL / GLC / IP / K / LDH / Na / PL / RALB / TBIL / TC / TG / TP / gamma-GTP: tissue Plasma

`Nc1ccc(Cc2ccc(N)cc2)cc1` was tested, and the TERMINAL_BW (3 h) was 212.4 g, the APTT (3 h) was 14.4 s and the Bas (3 h) was 0%. The Eos (3 h) was 0.6%, the Fbg (3 h) was 268.8 mg/dL and the Hb (3 h) was 13 g/dL. It also gave a Ht (3 h) of 38%, a Lym (3 h) of 75.8% and an MCH (3 h) of 21 pg. The MCHC (3 h) was 34.2%, the MCV (3 h) was 61.4 fL and the Mono (3 h) was 3.8%. For the same molecule, the Neu (3 h) was 19.4%, the PT (3 h) was 11.7 s and the Plat (3 h) was 154.4 x10_4/uL. For the same molecule, the RBC (3 h) was 618.6 x10_4/ul, the Ret (3 h) was 8.7% and the WBC (3 h) was 83.6 x10_2/uL. For the same molecule, the KIDNEY_L (3 h) was 0.8 g, the KIDNEY_R (3 h) was 0.9 g and the KIDNEY_TOTAL (3 h) was 1.7 g. For the same molecule, the LIVER (3 h) was 9.1 g, the A/G (3 h) was 0.8 and the ALP (3 h) was 1470.6 IU/L. For the same molecule, the ALT (3 h) was 45.6 IU/L, the AST (3 h) was 82.8 IU/L and the BUN (3 h) was 11 mg/dL. It also gave a CRE (3 h) of 0.2 mg/dL, a Ca (3 h) of 10.9 mg/dL and a Cl (3 h) of 104 meq/L. The DBIL (3 h) was 0.028 mg/dL, the GLC (3 h) was 173.6 mg/dL and the IP (3 h) was 9.4 mg/dL. The K (3 h) was 4 meq/L, the LDH (3 h) was 64.4 IU/L and the Na (3 h) was 140.2 meq/L. The PL (3 h) was 155.6 mg/dL, the RALB (3 h) was 2.5 g/dL and the TBIL (3 h) was 0.074 mg/dL. For the same molecule, the TC (3 h) was 86.4 mg/dL, the TG (3 h) was 73 mg/dL and the TP (3 h) was 5.6 g/dL. It also gave a gamma-GTP (3 h) of 1.2 IU/L, a TERMINAL_BW (6 h) of 206.8 g and an APTT (6 h) of 14.6 s. For the same molecule, the Bas (6 h) was 0%, the Eos (6 h) was 0.6% and the Fbg (6 h) was 278 mg/dL. It also gave a Hb (6 h) of 13.4 g/dL, a Ht (6 h) of 39.2% and a Lym (6 h) of 62.4%. The MCH (6 h) was 21.2 pg, the MCHC (6 h) was 34.1% and the MCV (6 h) was 62.3 fL. It also gave a Mono (6 h) of 3.6%, a Neu (6 h) of 32.2% and a PT (6 h) of 11.8 s. It also gave a Plat (6 h) of 144.9 x10_4/uL, an RBC (6 h) of 630.2 x10_4/ul and a Ret (6 h) of 8.2%. It also gave a WBC (6 h) of 104 x10_2/uL, a KIDNEY_L (6 h) of 0.9 g and a KIDNEY_R (6 h) of 0.9 g. For the same molecule, the KIDNEY_TOTAL (6 h) was 1.9 g, the LIVER (6 h) was 9.3 g and the A/G (6 h) was 0.8. The ALP (6 h) was 1520.8 IU/L, the ALT (6 h) was 42.8 IU/L and the AST (6 h) was 94.8 IU/L. The BUN (6 h) was 8.8 mg/dL, the CRE (6 h) was 0.2 mg/dL and the Ca (6 h) was 10.5 mg/dL. For the same molecule, the Cl (6 h) was 104.6 meq/L, the DBIL (6 h) was 0.1 mg/dL and the GLC (6 h) was 176.2 mg/dL. It also gave an IP (6 h) of 9.5 mg/dL, a K (6 h) of 4 meq/L and an LDH (6 h) of 90 IU/L. It also gave a Na (6 h) of 140.2 meq/L, a PL (6 h) of 152.4 mg/dL and an RALB (6 h) of 2.5 g/dL. The TBIL (6 h) was 0.2 mg/dL, the TC (6 h) was 79 mg/dL and the TG (6 h) was 53.2 mg/dL. It also gave a TP (6 h) of 5.6 g/dL, a gamma-GTP (6 h) of 2.6 IU/L and a TERMINAL_BW (9 h) of 205.5 g. It also gave an APTT (9 h) of 14.8 s, a Bas (9 h) of 0% and an Eos (9 h) of 0.8%. The Fbg (9 h) was 285.4 mg/dL, the Hb (9 h) was 13 g/dL and the Ht (9 h) was 37.8%. The Lym (9 h) was 68.6%, the MCH (9 h) was 21.2 pg and the MCHC (9 h) was 34.2%. The MCV (9 h) was 61.9 fL, the Mono (9 h) was 2.8% and the Neu (9 h) was 27.6%. The PT (9 h) was 12.1 s, the Plat (9 h) was 139.1 x10_4/uL and the RBC (9 h) was 610.8 x10_4/ul. For the same molecule, the Ret (9 h) was 7.8%, the WBC (9 h) was 72.9 x10_2/uL and the KIDNEY_L (9 h) was 0.9 g. The KIDNEY_R (9 h) was 0.9 g, the KIDNEY_TOTAL (9 h) was 1.8 g and the LIVER (9 h) was 8 g. The A/G (9 h) was 0.8, the ALP (9 h) was 1218.8 IU/L and the ALT (9 h) was 43.8 IU/L. It also gave an AST (9 h) of 105 IU/L, a BUN (9 h) of 8.2 mg/dL and a CRE (9 h) of 0.2 mg/dL. The Ca (9 h) was 10.2 mg/dL, the Cl (9 h) was 106.2 meq/L and the DBIL (9 h) was 0.2 mg/dL. The GLC (9 h) was 167.6 mg/dL, the IP (9 h) was 9.4 mg/dL and the K (9 h) was 4.5 meq/L. For the same molecule, the LDH (9 h) was 99 IU/L, the Na (9 h) was 142.4 meq/L and the PL (9 h) was 166.2 mg/dL. It also gave an RALB (9 h) of 2.4 g/dL, a TBIL (9 h) of 0.3 mg/dL and a TC (9 h) of 86.8 mg/dL. For the same molecule, the TG (9 h) was 39.8 mg/dL, the TP (9 h) was 5.3 g/dL and the gamma-GTP (9 h) was 3.4 IU/L. It also gave a TERMINAL_BW (24 h) of 195.3 g, an APTT (24 h) of 16.4 s and a Bas (24 h) of 0%. The Eos (24 h) was 0.4%, the Fbg (24 h) was 474.8 mg/dL and the Hb (24 h) was 12.6 g/dL. The Ht (24 h) was 35.7%, the Lym (24 h) was 62.4% and the MCH (24 h) was 21.5 pg. The MCHC (24 h) was 35.4%, the MCV (24 h) was 60.6 fL and the Mono (24 h) was 5%. It also gave a Neu (24 h) of 31%, a PT (24 h) of 11.5 s and a Plat (24 h) of 149.3 x10_4/uL. The RBC (24 h) was 589 x10_4/ul, the Ret (24 h) was 6.7% and the WBC (24 h) was 118.7 x10_2/uL. For the same molecule, the KIDNEY_L (24 h) was 0.9 g, the KIDNEY_R (24 h) was 0.9 g and the KIDNEY_TOTAL (24 h) was 1.8 g. It also gave an LIVER (24 h) of 7.8 g, an A/G (24 h) of 0.8 and an ALP (24 h) of 3282.4 IU/L. For the same molecule, the ALT (24 h) was 252.8 IU/L, the AST (24 h) was 532.6 IU/L and the BUN (24 h) was 11.2 mg/dL. It also gave a CRE (24 h) of 0.2 mg/dL, a Ca (24 h) of 11.1 mg/dL and a Cl (24 h) of 102.2 meq/L. The DBIL (24 h) was 2.3 mg/dL, the GLC (24 h) was 136.2 mg/dL and the IP (24 h) was 9.6 mg/dL. It also gave a K (24 h) of 3.8 meq/L, an LDH (24 h) of 332.8 IU/L and a Na (24 h) of 143.8 meq/L. The PL (24 h) was 302.6 mg/dL, the RALB (24 h) was 2.4 g/dL and the TBIL (24 h) was 3.1 mg/dL. The TC (24 h) was 135.2 mg/dL, the TG (24 h) was 63.4 mg/dL and the TP (24 h) was 5.6 g/dL. The gamma-GTP (24 h) was 8.6 IU/L.

— ChEMBL document CHEMBL3885861, “Open TG-GATES”
